In ChEMBL document CHEMBL4152334, “Synthesis, molecular docking and biological evaluation of novel phthaloyl derivatives of 3-amino-3-aryl propionic acids as inhibitors of Trypanosoma cruzi trans-sialidase” (2018):

The molecules below were run on Trypanosoma cruzi (assay: Trypanocidal activity against trypomastigote stage of Trypanosoma cruzi INC-5 infected in NIH mouse blood assessed as parasite lysis at 10 ug/ml after 24 hrs by optical microscopic method relative to control). Conditions: not given.
Format: functional

How did the Activity turn out when `Cc1ccc2c(c1)C(=O)N(C(CC(=O)O)c1ccc3ccccc3c1)C2=O` (stereo not given) was run?
The Activity was 65%.

How did the Activity turn out when `NC(CC(=O)O)c1ccc(O)cc1` (stereo not given) was run?
The Activity was 76%.

`NC(CC(=O)O)c1ccc2ccccc2c1` (stereo not given) was tested. Which Activity did it give?
The Activity was 60%.

`O=C(O)CC(c1ccc(O)cc1)N1C(=O)c2ccccc2C1=O` (stereo not given) was tested. Which Activity did it give?
Its Activity is 68%.

The molecules below were run on Trypanosoma cruzi (assay: Trypanocidal activity against trypomastigote stage of Trypanosoma cruzi INC-5 infected in NIH mouse blood assessed as parasite lysis after 24 hrs by optical microscopic method). Conditions: INC-5, Blood.
Format: functional

Which LC50 does the source give for `Cc1ccc2c(c1)C(=O)N(C(CC(=O)O)c1ccc3ccccc3c1)C2=O` (stereo not given) here?
The LC50 was 46.2 µM.

Which LC50 does the source give for `NC(CC(=O)O)c1ccc(O)cc1` (stereo not given) here?
The LC50 was 127 µM.

How did the LC50 turn out when `NC(CC(=O)O)c1ccc2ccccc2c1` (stereo not given) was run?
Its LC50 is 103 µM.

`O=C(O)CC(c1ccc(O)cc1)N1C(=O)c2ccccc2C1=O` (stereo not given) was tested. Which LC50 did it give?
Its LC50 is 91 µM.

The molecules below were run against T1, Trans-sialidase (Trypanosoma cruzi) (UniProt Q26964) (assay: Inhibition of Trypanosoma cruzi trans-sialidase at 1 mM assessed as reduction of 3'-sialyl-N-acetyllactosamine formation at 1 mM using N-acetyllactosamine as substrate and 3-sialyl-lactose as donor incubated for 15 mins by HPAEC-PAD relative to control). Conditions: not given.
T1 sequence (whole entry): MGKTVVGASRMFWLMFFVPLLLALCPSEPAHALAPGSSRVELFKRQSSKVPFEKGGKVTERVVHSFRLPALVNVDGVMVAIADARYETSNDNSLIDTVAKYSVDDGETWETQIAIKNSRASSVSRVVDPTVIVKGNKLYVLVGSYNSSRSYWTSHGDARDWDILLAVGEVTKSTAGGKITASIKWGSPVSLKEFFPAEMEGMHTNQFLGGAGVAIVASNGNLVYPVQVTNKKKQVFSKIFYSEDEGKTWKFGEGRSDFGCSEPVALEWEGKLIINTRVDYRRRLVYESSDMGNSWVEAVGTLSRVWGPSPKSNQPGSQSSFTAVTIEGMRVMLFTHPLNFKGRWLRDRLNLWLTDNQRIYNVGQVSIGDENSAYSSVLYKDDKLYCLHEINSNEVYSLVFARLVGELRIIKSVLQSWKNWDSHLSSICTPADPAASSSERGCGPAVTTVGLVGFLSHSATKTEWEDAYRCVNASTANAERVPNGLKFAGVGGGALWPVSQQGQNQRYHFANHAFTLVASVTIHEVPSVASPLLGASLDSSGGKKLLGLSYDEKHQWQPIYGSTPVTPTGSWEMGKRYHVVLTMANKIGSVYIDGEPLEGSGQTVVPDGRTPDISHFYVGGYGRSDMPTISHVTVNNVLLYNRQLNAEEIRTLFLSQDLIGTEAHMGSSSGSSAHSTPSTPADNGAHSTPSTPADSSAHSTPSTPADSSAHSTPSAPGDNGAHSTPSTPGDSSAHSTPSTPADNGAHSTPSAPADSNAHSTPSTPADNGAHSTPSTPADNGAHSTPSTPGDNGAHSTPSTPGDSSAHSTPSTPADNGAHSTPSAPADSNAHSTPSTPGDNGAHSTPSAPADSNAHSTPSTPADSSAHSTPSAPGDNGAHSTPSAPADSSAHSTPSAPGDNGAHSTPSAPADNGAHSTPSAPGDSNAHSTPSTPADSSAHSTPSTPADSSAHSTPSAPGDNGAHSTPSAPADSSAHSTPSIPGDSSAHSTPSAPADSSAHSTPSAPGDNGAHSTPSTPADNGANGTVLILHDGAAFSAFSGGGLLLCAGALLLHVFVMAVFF

With `Cc1ccc2c(c1)C(=O)N(C(CC(=O)O)c1ccc3ccccc3c1)C2=O` (stereo not given) as the molecule, how does the inhibition read?
Its inhibition is 86.9%.

Which inhibition does the source give for `NC(CC(=O)O)c1ccc(O)cc1` (stereo not given) here?
Its inhibition is 1.4%.

`NC(CC(=O)O)c1ccc2ccccc2c1` (stereo not given) was tested. Which inhibition did it give?
The inhibition was 8.3%.

`O=C(O)CC(c1ccc(O)cc1)N1C(=O)c2ccccc2C1=O` (stereo not given) was tested. Which inhibition did it give?
Its inhibition is 5.6%.

Each molecule was assayed on Trypanosoma cruzi (assay: Trypanocidal activity against trypomastigote stage of Trypanosoma cruzi NINOA infected in NIH mouse blood assessed as […] parasite lysis after 24 hrs by optical microscopic method). Conditions: not given.
Format: functional

How did the LC50 turn out when `Cc1ccc2c(c1)C(=O)N(C(CC(=O)O)c1ccc3ccccc3c1)C2=O` (stereo not given) was run?
The LC50 was 52.7 µM.

`NC(CC(=O)O)c1ccc(O)cc1` (stereo not given) was tested. Which LC50 did it give?
Its LC50 is 152 µM.

Which LC50 does the source give for `NC(CC(=O)O)c1ccc2ccccc2c1` (stereo not given) here?
The LC50 was 98.7 µM.

With `O=C(O)CC(c1ccc(O)cc1)N1C(=O)c2ccccc2C1=O` (stereo not given) as the molecule, how does the LC50 read?
The LC50 was 71.4 µM.

The molecules below were run on Trypanosoma cruzi (assay: Trypanocidal activity against trypomastigote stage of Trypanosoma cruzi NINOA infected in NIH mouse blood assessed as parasite lysis at 10 ug/ml after 24 hrs by optical microscopic method relative to control). Conditions: not given.
Format: functional

`Cc1ccc2c(c1)C(=O)N(C(CC(=O)O)c1ccc3ccccc3c1)C2=O` (stereo not given) was tested. Which Activity did it give?
The Activity was 63%.

For `NC(CC(=O)O)c1ccc(O)cc1` (stereo not given), which Activity is on record?
Its Activity is 50%.

How did the Activity turn out when `NC(CC(=O)O)c1ccc2ccccc2c1` (stereo not given) was run?
Its Activity is 60%.

For `O=C(O)CC(c1ccc(O)cc1)N1C(=O)c2ccccc2C1=O` (stereo not given), which Activity is on record?
Its Activity is 77%.
